Literature values, collected in US20210379103A1, “ANISOTROPIC NANOPARTICLE COMPOSITIONS AND METHODS” (Buckyol Limited, priority 2017, published 2021).

Settings: C60(OH)8 with OH-groups forming a compact island

In the case of octa-hydroxylated fullerene [C60(OH)8], the hydration energy is given as −224 kJ per mol.
